From patent publication US5891434A, “Monoclonal antibodies to the APO-1 antigen” (Centocor, Inc., priority 1995, dated 1999)

Assays:
[1] = test system: DNA fragmentation induced by anti-APO-1; assay: endonuclease-mediated DNA fragmentation induced by anti-APO-1, in the presence of Ca2+ channel blockers; type: cell-based; details: Ca2+ channel blocker at 50 μM
Method: CCRF-CEM.S2 cells (10^6 per milliliter) were incubated with MAb (1 μg/ml) in culture medium at 37° C. At various times, aliquots of 10^6 cells were removed and DNA was prepared.
SKW6.4 cells were either incubated with the isotype-matched control MAb FII20, FII23 (nonbinding MAb), or anti-APO-1 in microcultures for 24 hours before labeling with [^3 H]-thymidine for a further 4 hours. The data represent the mean of duplicate cultures with a variation of less than 5%. The cells were cultured in RPMI 1640 medium (Gibco, Grand Island, N.Y.), supplemented with 2 mM L-glutamine, streptomycin (100 μg/ml), penicillin (100 U/ml), 20 mM Hepes buffer pH 7.3, and 10% heat-inactivatedfetal bovine serum (Conco Lab-Division, Wiesbaden, FRG). For microcultures 1×10^4 cells per well were cultured in duplicates in flat bottom 96-well microtiter plates (Tecnomara, Fernwald, FRG) (200 μfinal volume per well). After 24 hours, the cells were labeled with 0.5 μCi of [^3 H]-thymidine (Amersham, Braunschweig, FRG)) for 4 hours. Before harvesting, the microcultures were examined by microscopic inspection. For DNA fragmentation 1×10^6 cells were washed with cold phosphate-buffered saline and disrupted with NTE buffer, pH 8 (100 mM NaCl, 10 mM Tris-HCl, 1 mM EDTA) containing 1% SDS and proteinase K (0.2 mg/ml). […]

[2] = test system: membrane blebbing induced by anti-APO-1; assay: kinetics of membrane blebbing induced by anti-APO-1, in the presence of chelators; type: cell-based; details: 10 mM
From the text: The CCRF-CEM.S2 subclone was obtained by cloning cells under limiting dilution conditions from the CCRF-CEM T cell line at one cell per well in 96-well microtiter plates.

Compound	inhibition of endonuclease-mediated DNA fragmentation induced by anti-APO-1 [1]	influence on kinetics of membrane blebbing induced by anti-APO-1 (within 30 minutes) [2]
Furamicin	not inhibited	–
O=C(O)CN(CCN(CC(=O)O)CC(=O)O)CC(=O)O [EDTA]	–	not influenced
COC(=O)C1=C(C)NC(C)=C(C(=O)OC)C1c1ccccc1[N+](=O)[O-] [Nifedipin]	not inhibited	–
O=C(O)CN(CCOCCOCCN(CC(=O)O)CC(=O)O)CC(=O)O [EGTA]	–	not influenced
